What all share (format): cell-based
In experiment [1] the test system is MCF-7 breast cancer cell line. Kind of experiment: In vitro anticancer activity, SRB assay, MCF-7. The settings on record: Homo sapiens, MCF7, 48 h, NA = Not Active. On the procedure: (§1) Cell culture: Human lung adenocarcinoma cell line (A549 cell line), pancreatic cancer cell line (Panc-1, Pan-02), prostate cancer cell line (DU145, PC3), Brest cancer cell line (MCF-7) was grown in DIEM (Dulbecco's modifications of eagle's medium with L-glutamine & 4.5 g/L glucose) supplemented with fetal bovine serum in a humidified atmosphere of a 5% CO2 at 37° C.
(§2) In vitro anticancer activity: Cells were harvested from exponential phase cultures by trypsinization, counted and plated in 96-well plate. Optimal seeding densities for different cell lines in each plate were 5000 cells per well. After 24 h cells were treated with \ the newly synthesized compound at a dose range of 0.1-100 μm final concentration. Thereafter, cells were allowed to grow for 48 h before determination of cell survival by the SRB assay. Then the cells were fixed with 10% cold trichloroacetic acid for 1 h at 4° C. After two washes with deionized water, fixed cells were stained with 50 μL of SRB solution (1% in acetic acid) for 30 min and subsequently washed twice with 1% acetic acid to remove unbound stain. The plates were left to dry at room temperature and bound stain was solubilized with 100 μL of 10 mM buffered Tris base for reading the […] at 540 nm.
Background: In SRB staining, fixed cells bind dye roughly in proportion to their protein.

Experiment [2] has as its system A549 lung adenocarcinoma cell line. Description: In vitro anticancer activity, SRB assay, A549. The note with it: Homo sapiens, 48 h, NA = Not Active. On the procedure: as §1, §2
Experiment [3] deals with PC3 prostate cancer cell line. Description: In vitro anticancer activity, SRB assay, PC3. The settings on record: 48 h, NA = Not Active. On the procedure: as §1, §2
Experiment [4] deals with DU-145 prostate cancer cell line. Description: In vitro anticancer activity, SRB assay, DU-145. The note with it: Homo sapiens, 48 h, NA = Not Active. On the procedure: as §1, §2
In experiment [5] the test system is Panc-1 pancreatic cancer cell line. Kind of experiment: In vitro anticancer activity, SRB assay, Panc-1. The settings on record: Homo sapiens, 48 h, NA = Not Active. On the procedure:
as §1, §2

Molecules are shown by their SMILES.

By IC50 is commonly meant the point on the concentration scale where inhibition reaches its midpoint. `COC(=O)C[C@H]1[C@]2(C)C3=C(C)[C@H](c4ccoc4)C[C@@H]3O[C@@H]2[C@@H]2OC(=O)[C@]3(C)C(OCc4ccccc4)CC(=O)[C@@]1(C)C23` (stereo partly shown) [A2]: the IC50 in experiment [1] came out at 4.72 µM; in experiment [2], 13.1 µM; in experiment [3], 1.01 µM; in experiment [4], 1.45 µM; in experiment [5], 8.78 µM.
Taken in the same sequence, the figures for `COC(=O)C[C@H]1[C@]2(C)C3=C(C)[C@H](c4ccoc4)C[C@@H]3O[C@@H]2[C@@H]2OC(=O)[C@]3(C)C(C(O)c4ccc([N+](=O)[O-])cc4)=CC(=O)[C@@]1(C)C23` (stereo partly shown) [A3] were 4.74 µM, 12.2 µM, 9.08 µM, 9.31 µM and 7.79 µM.
The like results for `COC(=O)C[C@H]1[C@]2(C)C3=C(C)[C@H](c4ccoc4)C[C@@H]3O[C@@H]2[C@@H]2OC(=O)[C@]3(C)C4CC4C(=O)[C@@]1(C)C23` (stereo partly shown) [A5] were, in that order, 17.1 µM, 60.8 µM, 20.6 µM, 7.91 µM and 1.04 µM.
Consider `COC(=O)C[C@H]1[C@]2(C)C3=C(C)[C@H](c4ccoc4)C[C@@H]3O[C@@H]2[C@@H]2OC(=O)[C@]3(C)CCC(=O)[C@@]1(C)C23` (stereo partly shown) [A6], for which the IC50 in experiment [1] is 32.5 µM; in experiment [2], 67.2 µM; in experiment [3], 79.1 µM; in experiment [4], 75.1 µM; in experiment [5] it was 32.9 µM.
For the compound `COC(=O)C[C@H]1[C@]2(C)C3=C(C)[C@H](c4ccoc4)C[C@@H]3O[C@@H]2[C@@H]2OC(=O)[C@]3(C)C(Sc4cccc(N)c4)CC(=O)[C@@]1(C)C23` (stereo partly shown) [A7], the IC50 in experiment [1] was 52.2 µM; in experiment [2] it was 23.9 µM; in experiment [3] it was 65.3 µM; in experiment [5], 18.6 µM.
Taken in the same sequence, the figures for `COC(=O)C[C@H]1[C@]2(C)C3=C(C)[C@H](c4ccoc4)C[C@@H]3O[C@@H]2[C@@H]2OC(=O)[C@]3(C)C(Nc4ccccc4)CC(=O)[C@@]1(C)C23` (stereo partly shown) [A8] were 56.6 µM, 89.4 µM, 21 µM and 85.5 µM.

The values are drawn from patent publication US11932654B2, “Nimbolide analogs as anti-cancer agents and preparation thereof” (priority 2018, dated 2024).
